The text below walks through data of ChEMBL document CHEMBL1133022, “Predicting blood-brain barrier permeation from three-dimensional molecular structure” (J Med Chem, 2000).

The structures appear in SMILES notation.

One data set is filed under the species Mus musculus. The experiment in a line: BBB penetration classification.
Conditions: not given
For `O=C(Cc1ccc(Cl)c(Cl)c1)N1CCc2occc2[C@@H]1CN1CC[C@H](O)C1` (racemic), the Permeability result is recorded as “Permeable”.

Regarding `C[C@H](CN1c2ccccc2Sc2ccccc21)N(C)C`, the Permeability result was “Permeable”.

As for `CN/C(=N/CCSCc1nc[nH]c1C)NC#N` [CIMETIDINE], the Permeability result is recorded as “Impermeable”.

On to `CC(C)(C)c1ccc(C(=O)CCCN2CCC(OC(c3ccccc3)c3ccccc3)CC2)cc1` [EBASTINE], for which the Permeability entry is reported as “Impermeable”.

On to `C[C@]12CC[C@@H]3c4ccc(O)cc4CC[C@H]3[C@@H]1CC[C@@H]2O` [ESTRADIOL], for which the Permeability result is “Permeable”.

As for `CCCC(C)C1(CC)C(=O)NC(=S)NC1=O` (stereo unspecified) [THIOPENTAL], the Permeability entry is “Permeable”.

As to `Cn1c(=O)c2c(ncn2C)n(C)c1=O` [CAFFEINE], the Permeability result is listed as “Permeable”.

`OCCN1CCN(CCCN2c3ccccc3Sc3ccc(Cl)cc32)CC1` [PERPHENAZINE]: the Permeability result is “Permeable”.

With `CN(C)CCCN1c2ccccc2Sc2ccc(Cl)cc21` [CHLORPROMAZINE], the Permeability result is reported as “Permeable”.

As for `NCCc1ccc(O)c(O)c1` [DOPAMINE], the Permeability result is reported as “Impermeable”.

As to `O=C(Cc1ccc(Cl)c(Cl)c1)N1CCCC[C@H]1CN1CCCC1`, the Permeability result is listed as “Permeable”.

For the compound `C[C@@H](CN1c2ccccc2Sc2ccccc21)N(C)C` [(S)-PROMETHAZINE], the Permeability entry is given as “Permeable”.

`O=C(Cc1ccc(Cl)c(Cl)c1)N1CCc2occc2[C@H]1CN1CC[C@@H](O)C1` (mixture of isomers): the Permeability entry is recorded as “Permeable”.

As to `CC(C)(C)c1ccc([C@H](O)CCCN2CCC(C(O)(c3ccccc3)c3ccccc3)CC2)cc1` [R-TERFENADINE], the Permeability entry was “Impermeable”.

With `O=c1[nH]c2ccccc2n1CCCN1CCC(n2c(=O)[nH]c3cc(Cl)ccc32)CC1` [DOMPERIDONE], the Permeability result is listed as “Impermeable”.

As for `O=C(Cc1ccc(Cl)c(Cl)c1)N1CCc2occc2[C@H]1CN1CC[C@H](O)C1`, the Permeability entry is on record as “Permeable”.

As to `CC(C)(C)c1ccc([C@@H](O)CCCN2CCC(C(O)(c3ccccc3)c3ccccc3)CC2)cc1`, the Permeability result is on record as “Impermeable”.

Take `CCn1cc(C(=O)O)c(=O)c2cc(F)c(N3CCNCC3)cc21` [NORFLOXACIN]: the Permeability entry is “Impermeable”.

For `CNC(=C[N+](=O)[O-])NCCSCc1ccc(CN(C)C)o1` [RANITIDINE], the Permeability result is “Impermeable”.

In the case of `CCC(NC(=O)c1c(C)c(-c2ccccc2)nc2ccccc12)c1ccccc1` (stereo unspecified), the Permeability result is recorded as “Permeable”.

`O=C1CC[C@@]2(O)[C@H]3Cc4ccc(O)c5c4[C@@]2(CCN3CC2CC2)[C@H]1O5` [NALTREXONE]: the Permeability entry was “Permeable”.

Consider `Clc1cccc(Cl)c1N=C1NCCN1` [CLONIDINE], for which the Permeability entry is “Permeable”.

For the compound `CSc1ccc2c(c1)N(CCC1CCCCN1C)c1ccccc1S2` (stereo unspecified) [THIORIDAZINE], the Permeability result was “Permeable”.

Turning to `CNCCCN1c2ccccc2CCc2ccccc21` [DESIPRAMINE], the Permeability result is “Permeable”.

For `COc1ccc(CCN2CCC(Nc3nc4ccccc4n3Cc3ccc(F)cc3)CC2)cc1` [ASTEMIZOLE], the Permeability entry is recorded as “Impermeable”.

Still in this data set, the particulars now being: in vivo.
`N[C@@H](Cc1ccc(O)c(O)c1)C(=O)O` [LEVODOPA]: the “BBB Impermeable” value was “Impermeable”.
